Data: PMC10504751, “Chalcone/1,3,4-Oxadiazole/Benzimidazole hybrids as novel anti-proliferative agents inducing apoptosis and inhibiting EGFR & BRAFV^600E” (BMC Chemistry, 2023)

How the values were obtained:
Type in all cases: cell-based
HT-29 = assay: Propidium iodide anti-proliferative assay; conditions: Homo sapiens, 48 h incubation, read-out: IC50 ± SEM HT-29
Method in brief: (§1)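 Cells seeded at 3000-7500 cells/well and grown 24 h at 37 °C, then treated with compounds (10 µM in 0.1% DMSO, triplicate; IC50 runs at varied concentrations) for 48 h. PI added, plates frozen 24 h at -80 °C and thawed, fluorescence read at 530/620 nm; % cytotoxicity versus 0.1% DMSO control.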

MCF-7 = assay: Propidium iodide anti-proliferative assay; conditions: Homo sapiens, MCF7; 48 h incubation; read-out: IC50 ± SEM MCF-7
Method in brief: as §1

Panc-1 = assay: Propidium iodide anti-proliferative assay; conditions: Homo sapiens, 48 h incubation, read-out: IC50 ± SEM Panc-1
Method in brief: as §1

A-549 = assay: Propidium iodide anti-proliferative assay; conditions: Homo sapiens, A549; 48 h incubation; read-out: IC50 ± SEM A-549
Method in brief: as §1

HOP-62 = assay: NCI one-dose SRB anti-proliferative screen; conditions: Homo sapiens; HOP-62, Non-Small Cell Lung Cancer; NCI one dose; read-out: Cell growth inhibition %
Procedure: (§2) The twenty-four synthesized compounds were submitted to the National Cancer Institute (NCI), USA. Eighteen hybrids 7a-h, 7k-r, 7u, and 7v were selected by NCI for one-dose assessment of their anti-proliferative activities at 10 µM dose by Sulforhodamine B colorimetric assay. The assessment was performed in 60 cell lines derived from nine tumor subpanels, comprising lung, leukemia, melanoma, colon, renal, CNS, prostate, breast, and ovarian cancer cell lines.
(§3) The methodology of the NCI anti-proliferative screening has been described in details elsewhere (http://www.dtp.nci.nih.gov).

SR = assay: NCI one-dose SRB anti-proliferative screen; conditions: Homo sapiens; SR, Leukemia; NCI one dose; read-out: Cell growth inhibition %
Procedure: as §2, §3

786-0 = assay: NCI one-dose SRB anti-proliferative screen; conditions: Homo sapiens; 786-0, Renal cancer; NCI one dose; read-out: Cell growth inhibition %
Procedure: as §2, §3

MDA-MB-468 = assay: NCI one-dose SRB anti-proliferative screen; conditions: Homo sapiens; MDA-MB-468, Breast cancer; NCI one dose; read-out: Cell growth inhibition %
Procedure: as §2, §3

RPMI-8226 = assay: NCI one-dose SRB anti-proliferative screen; conditions: Homo sapiens; RPMI-8226, Leukemia; NCI one dose; read-out: Cell growth inhibition %
Procedure: as §2, §3

CAKI-1 = assay: NCI one-dose SRB anti-proliferative screen; conditions: Homo sapiens; CAKI-1, Renal cancer; NCI one dose; read-out: Cell growth inhibition %
Procedure: as §2, §3

A498 = assay: NCI one-dose SRB anti-proliferative screen; conditions: Homo sapiens; A498, Renal cancer; NCI one dose; read-out: Cell growth inhibition %
Procedure: as §2, §3

EKVX = assay: NCI one-dose SRB anti-proliferative screen; conditions: Homo sapiens; EKVX, Non-Small Cell Lung Cancer; NCI one dose; read-out: Cell growth inhibition %
Procedure: as §2, §3

MDA-MB-435 = assay: NCI one-dose SRB anti-proliferative screen; conditions: Homo sapiens; MDA-MB-435, Melanoma; NCI one dose; read-out: Cell growth inhibition %
Procedure: as §2, §3

HS 578T = assay: NCI one-dose SRB anti-proliferative screen; conditions: Homo sapiens; HS 578T, Breast cancer; NCI one dose; read-out: Cell growth inhibition %
Procedure: as §2, §3

UACC-62 = assay: NCI one-dose SRB anti-proliferative screen; conditions: Homo sapiens; UACC-62, Melanoma; NCI one dose; read-out: Cell growth inhibition %
Procedure: as §2, §3

OVCAR-3 = assay: NCI one-dose SRB anti-proliferative screen; conditions: Homo sapiens; OVCAR-3, Ovarian Cancer; NCI one dose; read-out: Cell growth inhibition %
Procedure: as §2, §3

SN12C = assay: NCI one-dose SRB anti-proliferative screen; conditions: Homo sapiens, SN 12C, Renal cancer, NCI one dose, read-out: Cell growth inhibition %
Procedure: as §2, §3

SK-MEL-2 = assay: NCI one-dose SRB anti-proliferative screen; conditions: Homo sapiens; SK-MEL-2, Melanoma; NCI one dose; read-out: Cell growth inhibition %
Procedure: as §2, §3

ACHN = assay: NCI one-dose SRB anti-proliferative screen; conditions: Homo sapiens; ACHN, Renal cancer; NCI one dose; read-out: Cell growth inhibition %
Procedure: as §2, §3

U251 = assay: NCI one-dose SRB anti-proliferative screen; conditions: Homo sapiens, U-251; U251, CNS Cancer; NCI one dose; read-out: Cell growth inhibition %
Procedure: as §2, §3

NCI-H226 = assay: NCI one-dose SRB anti-proliferative screen; conditions: Homo sapiens; NCI-H226, Non-Small Cell Lung Cancer; NCI one dose; read-out: Cell growth inhibition %
Procedure: as §2, §3

| Structure (SMILES) | IC50 (HT-29) | IC50 (MCF-7) | IC50 (Panc-1) | IC50 (A-549) | inhibition at 10 µM (HOP-62) | inhibition at 10 µM (SR) | inhibition at 10 µM (786-0) | inhibition at 10 µM (MDA-MB-468) | inhibition at 10 µM (RPMI-8226) | inhibition at 10 µM (CAKI-1) | inhibition at 10 µM (A498) | inhibition at 10 µM (EKVX) | inhibition at 10 µM (MDA-MB-435) | inhibition at 10 µM (HS 578T) | inhibition at 10 µM (UACC-62) | inhibition at 10 µM (OVCAR-3) | inhibition at 10 µM (SN12C) | inhibition at 10 µM (SK-MEL-2) | inhibition at 10 µM (ACHN) | inhibition at 10 µM (U251) | also measured |
| --- | --- | --- | --- | --- | --- | --- | --- | --- | --- | --- | --- | --- | --- | --- | --- | --- | --- | --- | --- | --- | --- |
| COc1ccc(-c2nc3cc(-c4nnc(SCC(=O)Nc5ccc(C(=O)/C=C/c6ccccc6)cc5)o4)ccc3[nH]2)cc1 [Compound 7k, 2-{5-[2-(4-Methoxyphenyl)-1 H-benzo[d]imidazol-5-yl]-1,3,4-oxadiazol-2-ylthio}-N-{4-[(E)-3-phenylacryloyl]phenyl}acetamide] | 1400 ± 200 nM | 950 ± 80 nM | 1300 ± 200 nM | 1200 ± 200 nM | 0% | 51.6% | 41.2% | 19.5% | 86.7% | 14.1% | 19.9% | 13.9% | 33.6% | 7.69% | 20.1% | 0% | 15.2% | 0% | 7.59% | 33.2% | inhibition at 10 µM (NCI-H226): 35.4% |
| COc1ccc(-c2nc3cc(-c4nnc(SCC(=O)Nc5ccc(C(=O)/C=C/c6ccc(Cl)cc6)cc5)o4)ccc3[nH]2)cc1 [Compound 7l, 2-{5-[2-(4-Methoxyphenyl)-1 H-benzo[d]imidazol-5-yl]-1,3,4-oxadiazol-2-ylthio}-N-{4-[(E)-3-(4-chlorophenyl)acryloyl]phenyl}acetamide] | 1650 ± 300 nM | 1100 ± 100 nM | 1500 ± 300 nM | 1450 ± 300 nM | 0.53% | 31.8% | 0.91% | 1.89% | 20.1% | 2.8% | 15.7% | 0.26% | 0.7% | 9.4% | 6.01% | 0% | 11.7% | 0% | 2.31% | 5.67% | inhibition at 10 µM (NCI-H226): 5.85% |
| COc1ccc(/C=C/C(=O)c2ccc(NC(=O)CSc3nnc(-c4ccc5[nH]c(-c6ccc(OC)cc6)nc5c4)o3)cc2)cc1 [Compound 7m, 2-{5-[2-(4-Methoxyphenyl)-1 H-benzo[d]imidazol-5-yl]-1,3,4-oxadiazol-2-ylthio}-N-{4-[(E)-3-(4-methoxyphenyl)acryloyl]phenyl}acetamide] | 1850 ± 400 nM | 1200 ± 80 nM | 1500 ± 200 nM | 1400 ± 500 nM | 4.92% | 40.5% | 0% | 0% | 44.1% | 6.15% | 0% | 9.73% | 7.11% | 21.1% | 14.9% | 3.65% | 23.1% | 0% | 0% | 15.9% | inhibition at 10 µM (NCI-H226): 16% |
